Assay: xn = mol fraction of the nth substance listed

CC[N+]1(C)CCCC1.[Br-] + OC[C@H]1O[C@@H]2O[C@H]3[C@H](O)[C@@H](O)[C@@H](O[C@H]4[C@H](O)[C@@H](O)[C@@H](O[C@H]5[C@H](O)[C@@H](O)[C@@H](O[C@H]6[C@H](O)[C@@H](O)[C@@H](O[C@H]7[C@H](O)[C@@H](O)[C@@H](O[C@H]8[C@H](O)[C@@H](O)[C@@H](O[C@H]1[C@H](O)[C@H]2O)O[C@@H]8CO)O[C@@H]7CO)O[C@@H]6CO)O[C@@H]5CO)O[C@@H]4CO)O[C@@H]3CO + O
298.15 K, 100 kPa
Conditions	viscosity [mPa·s]
x2 = 1.587e-05, x1 = 0.001261	1.38
x2 = 1.587e-05, x1 = 0.001531	1.4
x2 = 1.588e-05, x1 = 0.0009911	1.37
x2 = 4.77e-05, x1 = 0.001534	1.45
x2 = 4.771e-05, x1 = 0.001264	1.42
x2 = 4.772e-05, x1 = 0.0009931	1.39

FC(F)C(F)(F)COC(F)(F)C(F)F + O=S(=O)([N-]S(=O)(=O)C(F)(F)F)C(F)(F)F.[Li+] + O=S1(=O)CCCC1
303.15 K, 101 kPa
Conditions	electrical conductivity [S/m]
x2 = 0.1429, x3 = 0.5714	0.073
x2 = 0.1818, x3 = 0.5455	0.09
x2 = 0.25, x3 = 0.5	0.09
x2 = 0.4, x3 = 0.4	0.079

CCCCCCCCCC[n+]1ccn(C)c1.O=S(=O)([N-]S(=O)(=O)C(F)(F)C(F)(F)F)C(F)(F)C(F)(F)F + O
Conditions	electrical conductivity [S/m]
295.15 K, 101 kPa, x2 = 0.14	0.11

CS(=O)(=O)[O-].C[N+](C)(CCO)CCO + O
101 kPa
Conditions	viscosity [mPa·s]
298.15 K, x1 = 0.1991	14.87
303.15 K, x1 = 0.2989	29.9
303.15 K, x1 = 0.6984	333
313.15 K, x1 = 0.4797	62.4
313.15 K, x1 = 0.6984	186
318.15 K, x1 = 0.2989	17.3
318.15 K, x1 = 0.4797	50.1
318.15 K, x1 = 1	378
323.15 K, x1 = 0.1991	6.85
323.15 K, x1 = 0.4797	40.9
323.15 K, x1 = 0.6984	112.1
323.15 K, x1 = 1	282

CCCC[n+]1ccn(C)c1.CS(=O)(=O)[O-] + O
101 kPa
Conditions	electrical conductivity [S/m]	viscosity [mPa·s]
298.15 K, x2 = 0.6542	–	31.9
298.15 K, x2 = 0.7014	–	25.2
298.15 K, x2 = 0.7494	–	19.09
298.15 K, x2 = 0.796	1.23	–
298.15 K, x2 = 0.951	4.06	–
298.15 K, x2 = 0.975	–	1.643
299.15 K, x1 = 0.008	2.11	–
299.15 K, x2 = 0.892	2.96	–
299.15 K, x2 = 0.951	4.12	–
300.15 K, x1 = 0.004	1.24	–
301.15 K, x2 = 0.861	2.53	–
302.15 K, x2 = 0.861	2.61	–
305.15 K, x1 = 0.004	1.37	–
305.15 K, x2 = 0.861	2.84	–
306.15 K, x1 = 0.004	1.4	–
307.15 K, x1 = 0.008	2.51	–
308.15 K, x1 = 0.019	4.06	–
308.15 K, x2 = 0.861	3.08	–
308.15 K, x2 = 0.968	4.94	–
309.15 K, x2 = 0.968	5.03	–
310.15 K, x1 = 0.019	4.22	–
310.15 K, x2 = 0.861	3.25	–
310.15 K, x2 = 0.892	4.03	–
310.15 K, x2 = 0.968	5.11	–
311.15 K, x2 = 0.861	3.35	–
313.15 K, x2 = 0.892	4.42	–
313.15 K, x2 = 0.9004	–	3.71
315.15 K, x2 = 0.968	5.63	–
316.15 K, x2 = 0.951	6.44	–
317.15 K, x1 = 0.004	1.7	–
317.15 K, x2 = 0.951	6.52	–
317.15 K, x2 = 0.968	5.83	–
318.15 K, x2 = 0.929	5.89	–
319.15 K, x2 = 0.861	4.14	–
319.15 K, x2 = 0.968	6.08	–
320.15 K, x1 = 0.004	1.79	–
320.15 K, x1 = 0.019	5.15	–
320.15 K, x2 = 0.892	5.23	–
320.15 K, x2 = 0.968	6.17	–
321.15 K, x2 = 0.968	6.3	–
322.15 K, x2 = 0.892	5.48	–
322.15 K, x2 = 0.929	6.42	–
323.15 K, x2 = 0.8015	–	6.16
323.15 K, x2 = 0.9503	–	1.503
323.15 K, x2 = 0.951	7.08	–
324.15 K, x1 = 0.004	1.91	–
324.15 K, x1 = 0.008	3.39	–
324.15 K, x1 = 0.019	5.48	–
324.15 K, x2 = 0.892	5.72	–
325.15 K, x1 = 0.008	3.45	–
325.15 K, x1 = 0.019	5.57	–
325.15 K, x2 = 0.929	6.93	–
326.15 K, x1 = 0.004	1.98	–
326.15 K, x2 = 0.929	6.92	–
326.15 K, x2 = 0.968	6.88	–
327.15 K, x2 = 0.861	5.02	–
327.15 K, x2 = 0.929	7.05	–
328.15 K, x1 = 0.019	5.74	–
328.15 K, x2 = 0.951	7.6	–
329.15 K, x2 = 0.968	7.25	–
331.15 K, x1 = 0.019	6.08	–
331.15 K, x2 = 0.861	5.49	–
332.15 K, x2 = 0.929	7.74	–
332.15 K, x2 = 0.951	8.16	–
333.15 K, x2 = 0.7014	–	8.05
333.15 K, x2 = 0.8015	–	4.67
333.15 K, x2 = 0.9004	–	2.3
333.15 K, x2 = 0.9503	–	1.24
333.15 K, x2 = 0.968	7.66	–
334.15 K, x2 = 0.968	7.78	–
335.15 K, x1 = 0.004	2.24	–
336.15 K, x1 = 0.004	2.27	–
336.15 K, x2 = 0.951	8.7	–
337.15 K, x2 = 0.861	6.31	–
337.15 K, x2 = 0.929	8.44	–
338.15 K, x1 = 0.019	6.52	–
338.15 K, x2 = 0.861	6.33	–
338.15 K, x2 = 0.951	8.96	–
339.15 K, x2 = 0.968	8.41	–
341.15 K, x2 = 0.892	7.89	–
342.15 K, x1 = 0.004	2.44	–
342.15 K, x2 = 0.861	6.89	–
342.15 K, x2 = 0.892	7.96	–
343.15 K, x1 = 0.004	2.46	–
343.15 K, x2 = 0.6542	–	7.44
343.15 K, x2 = 0.8521	–	2.67
343.15 K, x2 = 0.892	8.05	–
344.15 K, x2 = 0.929	9.45	–
345.15 K, x1 = 0.004	2.53	–
345.15 K, x2 = 0.951	10	–
345.15 K, x2 = 0.968	8.98	–
346.15 K, x1 = 0.008	4.56	–
346.15 K, x2 = 0.951	10.1	–
347.15 K, x2 = 0.861	7.63	–
347.15 K, x2 = 0.892	8.62	–
348.15 K, x1 = 0.004	2.61	–
348.15 K, x2 = 0.892	8.76	–
349.15 K, x2 = 0.861	7.79	–
349.15 K, x2 = 0.951	10.6	–
350.15 K, x1 = 0.019	7.75	–
352.15 K, x1 = 0.019	7.98	–
352.15 K, x2 = 0.951	10.9	–
353.15 K, x1 = 0.004	2.76	–
353.15 K, x2 = 0.861	8.33	–
353.15 K, x2 = 0.951	11.1	–
354.15 K, x2 = 0.861	8.44	–
355.15 K, x1 = 0.004	2.83	–
355.15 K, x2 = 0.968	10.3	–
356.15 K, x1 = 0.004	2.82	–
357.15 K, x1 = 0.004	2.86	–
357.15 K, x2 = 0.929	11.3	–
357.15 K, x2 = 0.951	11.3	–
358.15 K, x2 = 0.892	10.1	–

CS(=O)(=O)[O-].C[N+](C)(CCO)CCO + CO
viscosity [mPa·s], 101 kPa
Conditions	x1 = 0.1	x1 = 0.1996	x1 = 0.3001	x1 = 0.4004	x1 = 0.5005	x1 = 0.5976	x1 = 0.7022	x1 = 0.8012	x1 = 0.9012	x1 = 1
298.15 K	2.03	5.81	14.8	34.4	74.1	164	316	566	940	1495
303.15 K	1.85	5.12	12.57	28.1	58.3	125.1	231	402	656	1021
308.15 K	1.69	4.55	10.99	23.3	46.7	86.6	175	296	469	716
313.15 K	1.55	4.06	9.61	19.6	38	68.4	134.1	222	344	513
318.15 K	1.431	3.64	8.35	16.6	31.3	54.9	105.2	170	258	378
323.15 K	1.323	3.29	7.37	14.24	26.1	44.7	75.7	132.2	197	282

CCCCCO + CCCC[n+]1ccn(C)c1.O=S(=O)([N-]S(=O)(=O)C(F)(F)F)C(F)(F)F
298 K, 100 kPa
Conditions	electrical conductivity [S/m]	viscosity [mPa·s]
x2 = 0	–	3.486
x2 = 0.5988	–	20.14
x2 = 0.6	0.5605	–
x2 = 0.6994	–	25.03
x2 = 0.7	0.526	–
x2 = 0.8	0.487	–
x2 = 0.8014	–	31.59
x2 = 0.9	0.4445	–
x2 = 0.9023	–	39
